Results from ChEMBL document CHEMBL4219230, “Design, synthesis and biological evaluation of novel 4-phenylisoquinolinone BET bromodomain inhibitors” (Bioorg Med Chem Lett, 2018).
≈ marks a conversion by molar mass, not a printed value.

Legend:
[1] = Protein binding in mouse plasma; format: ADME, cell-free; conditions: read-out: PPB (converted)
[2] = Protein binding in human plasma; format: ADME, cell-free; conditions: read-out: PPB (converted)
in vivo = conditions: CD1, mouse, po, 10 mg/kg
in vitro [3] = conditions: mouse
Description: Half life in mouse liver microsomes

in vitro [4] = conditions: dog, MDCK-MDR1
Description: Permeability across apical to basolateral side in MDCK cells expressing MDR1

physchem = conditions: buffer, pH 7.4
Description: Solubility of the compound at pH 7.4

fraction unbound [1]	fraction unbound [2]	AUC(0-t) at 6 h (in vivo)	half-life (in vitro [3]; liver microsomes)	Papp A→B (in vitro [4])	solubility (physchem)	Compound	half-life (in vitro [3]; microsomes)
0.14	0.12	11400 ng·h/mL	> 3.33 h	6 ×10⁻⁶ cm/s	12 µg/mL (≈ 26.6 µM)	CCOc1ccc(S(=O)(=O)CC)cc1-c1cn(C)c(=O)c2ccc(-c3cnn(C)c3)cc12	
						CCNC(=O)C[C@@H]1N=C(c2ccc(Cl)cc2)c2cc(OC)ccc2-n2c(C)nnc21 [MOLIBRESIB]	1.58 h
